Format in all cases: cell-based
One test concerns the target T1, human TLR7 (Homo sapiens, UniProt Q9NYK1).
T1 construct: host or cells: HEK-Blue cells
T1 sequence (Q9NYK1 27-1049): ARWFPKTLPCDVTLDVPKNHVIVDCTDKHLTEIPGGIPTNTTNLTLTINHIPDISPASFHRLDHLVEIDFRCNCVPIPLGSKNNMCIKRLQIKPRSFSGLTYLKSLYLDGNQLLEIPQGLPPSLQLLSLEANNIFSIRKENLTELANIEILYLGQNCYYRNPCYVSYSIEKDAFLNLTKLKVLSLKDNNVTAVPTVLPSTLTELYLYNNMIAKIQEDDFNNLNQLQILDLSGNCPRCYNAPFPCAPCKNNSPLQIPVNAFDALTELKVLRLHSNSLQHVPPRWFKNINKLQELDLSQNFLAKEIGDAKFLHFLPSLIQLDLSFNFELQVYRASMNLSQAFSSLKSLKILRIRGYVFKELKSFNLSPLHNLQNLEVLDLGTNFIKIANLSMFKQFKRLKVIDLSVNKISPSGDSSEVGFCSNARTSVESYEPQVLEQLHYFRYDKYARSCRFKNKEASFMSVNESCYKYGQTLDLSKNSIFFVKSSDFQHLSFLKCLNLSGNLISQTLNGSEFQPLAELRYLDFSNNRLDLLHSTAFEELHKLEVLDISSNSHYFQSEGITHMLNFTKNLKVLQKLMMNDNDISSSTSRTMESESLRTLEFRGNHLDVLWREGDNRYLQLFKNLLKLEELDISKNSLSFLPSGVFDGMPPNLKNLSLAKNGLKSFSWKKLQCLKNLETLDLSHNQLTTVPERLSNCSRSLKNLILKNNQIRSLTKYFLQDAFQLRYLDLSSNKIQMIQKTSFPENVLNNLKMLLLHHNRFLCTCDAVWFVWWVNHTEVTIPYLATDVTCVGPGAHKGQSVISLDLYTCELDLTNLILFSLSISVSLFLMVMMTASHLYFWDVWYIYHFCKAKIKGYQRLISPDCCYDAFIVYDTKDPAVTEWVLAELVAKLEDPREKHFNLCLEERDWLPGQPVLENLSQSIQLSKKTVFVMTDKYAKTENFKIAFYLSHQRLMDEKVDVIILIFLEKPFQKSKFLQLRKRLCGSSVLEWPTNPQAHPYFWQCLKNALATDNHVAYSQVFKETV
Briefly: TLR7 inhibition reporter assay (HEK-Blue SEAP). Particulars: HEK-Blue cells overexpressing human TLR7, stimulated with gardiquimod 7.5 μM, 22 hour incubation. The method in brief:
(§1)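 Stimulation followed a 30 min room-temperature compound exposure (final 0.05 nM-50 μM): TLR7 cells with 7.5 μM gardiquimod, TLR8 with 15.9 μM R848, TLR9 with 5 nM ODN2006. After 22 h at 37 °C, secreted alkaline phosphatase was detected colorimetrically and inhibition calculated against DMSO and known-inhibitor controls.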
Background: Reporter assays use an easily measured gene product as a stand-in for the process of interest.

The next test deals with T2, human TLR8 (Homo sapiens, UniProt Q9NR97).
T2 construct: host or cells: HEK-Blue cells
T2 sequence (Q9NR97 27-1041): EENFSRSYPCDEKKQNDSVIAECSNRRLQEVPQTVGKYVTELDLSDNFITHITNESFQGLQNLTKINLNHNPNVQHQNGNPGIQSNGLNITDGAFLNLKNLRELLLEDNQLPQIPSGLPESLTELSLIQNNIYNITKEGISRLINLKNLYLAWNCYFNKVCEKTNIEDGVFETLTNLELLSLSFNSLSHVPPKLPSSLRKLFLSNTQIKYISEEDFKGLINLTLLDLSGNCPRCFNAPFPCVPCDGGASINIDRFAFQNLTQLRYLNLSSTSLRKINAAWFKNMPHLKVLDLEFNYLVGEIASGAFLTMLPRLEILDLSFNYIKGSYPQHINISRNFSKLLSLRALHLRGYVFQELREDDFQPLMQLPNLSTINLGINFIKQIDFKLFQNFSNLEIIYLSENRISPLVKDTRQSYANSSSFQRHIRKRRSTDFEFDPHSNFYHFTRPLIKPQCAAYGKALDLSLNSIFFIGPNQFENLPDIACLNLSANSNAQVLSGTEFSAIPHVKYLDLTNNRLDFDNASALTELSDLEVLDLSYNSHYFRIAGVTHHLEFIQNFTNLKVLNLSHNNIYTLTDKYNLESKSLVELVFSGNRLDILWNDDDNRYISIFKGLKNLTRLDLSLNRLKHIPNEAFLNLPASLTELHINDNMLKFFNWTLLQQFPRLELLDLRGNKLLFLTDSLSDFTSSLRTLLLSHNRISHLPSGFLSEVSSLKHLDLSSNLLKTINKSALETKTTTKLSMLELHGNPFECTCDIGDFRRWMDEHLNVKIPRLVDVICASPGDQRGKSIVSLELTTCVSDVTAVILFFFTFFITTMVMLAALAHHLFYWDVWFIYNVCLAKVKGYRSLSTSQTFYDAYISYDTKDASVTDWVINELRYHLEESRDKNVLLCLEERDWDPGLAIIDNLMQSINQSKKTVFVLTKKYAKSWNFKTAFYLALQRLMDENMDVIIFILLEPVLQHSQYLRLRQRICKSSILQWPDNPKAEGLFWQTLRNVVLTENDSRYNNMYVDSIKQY
The test is described as follows: TLR8 inhibition reporter assay (HEK-Blue SEAP). Particulars: HEK-Blue cells overexpressing human TLR8, stimulated with R848 15.9 μM, 22 hour incubation. An outline of the steps:
as §1

A further test deals with T3, human TLR9 (Homo sapiens, UniProt Q9NR96).
T3 construct: host or cells: HEK-Blue cells
T3 sequence (Q9NR96 26-1032): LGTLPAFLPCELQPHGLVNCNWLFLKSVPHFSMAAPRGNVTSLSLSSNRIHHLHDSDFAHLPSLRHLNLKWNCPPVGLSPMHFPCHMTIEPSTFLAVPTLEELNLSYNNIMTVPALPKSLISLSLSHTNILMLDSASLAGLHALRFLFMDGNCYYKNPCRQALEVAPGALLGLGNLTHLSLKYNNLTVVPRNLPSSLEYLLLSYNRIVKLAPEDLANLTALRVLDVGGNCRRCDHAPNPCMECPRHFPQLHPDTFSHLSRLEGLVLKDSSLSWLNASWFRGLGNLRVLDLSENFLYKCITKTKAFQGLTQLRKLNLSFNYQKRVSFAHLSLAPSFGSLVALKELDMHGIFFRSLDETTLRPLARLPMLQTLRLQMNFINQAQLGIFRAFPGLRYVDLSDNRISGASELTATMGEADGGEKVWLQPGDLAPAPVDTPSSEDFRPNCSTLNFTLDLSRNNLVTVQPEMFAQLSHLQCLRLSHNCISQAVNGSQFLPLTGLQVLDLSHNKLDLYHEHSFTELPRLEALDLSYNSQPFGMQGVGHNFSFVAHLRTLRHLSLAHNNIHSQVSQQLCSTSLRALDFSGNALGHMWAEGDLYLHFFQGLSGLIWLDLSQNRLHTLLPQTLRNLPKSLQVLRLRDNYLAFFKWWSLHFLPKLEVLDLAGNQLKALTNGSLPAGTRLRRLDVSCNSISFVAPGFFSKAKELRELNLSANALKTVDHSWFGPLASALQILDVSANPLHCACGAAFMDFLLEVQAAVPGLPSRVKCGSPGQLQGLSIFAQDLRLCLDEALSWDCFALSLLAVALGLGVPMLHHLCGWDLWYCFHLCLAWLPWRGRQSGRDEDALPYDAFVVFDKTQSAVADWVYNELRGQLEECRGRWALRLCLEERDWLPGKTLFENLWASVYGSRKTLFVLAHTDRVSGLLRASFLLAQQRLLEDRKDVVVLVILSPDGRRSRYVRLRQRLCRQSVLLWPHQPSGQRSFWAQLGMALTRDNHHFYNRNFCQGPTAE
The test is described as follows: TLR9 inhibition reporter assay (HEK-Blue SEAP). Particulars: HEK-Blue cells overexpressing human TLR9, stimulated with ODN2006 5 nM, 22 hour incubation. The method in brief:
as §1

Bounds are passed on as bounds.

Consider `Cc1cc(-c2[nH]c3ccc(O[C@H]4CCCN(C5CCOCC5)C4)cc3c2C(C)C)cn(C)c1=O` [Example 40, (S)-5-(3-isopropyl-5-((1-(tetrahydro-2H-pyran-4-yl)piperidin-3-yl)oxy)-1H-indol-2-yl)-1,3-dimethylpyridin-2(1H)-one], for which the IC50 against human TLR7 is 15.9 nM; against human TLR8 it was 10.8 nM; against human TLR9, 5250 nM.
In the same order, the values of `Cc1cc(-c2[nH]c3ccc(OCC4CCN(C)CC4)cc3c2C(C)C)cn2ncnc12` [Example 41, 6-(3-isopropyl-5-((1-methylpiperidin-4-yl)methoxy)-1H-indol-2-yl)-8-methyl-[1,2,4]triazolo[1,5-a]pyridine] are 1.2 nM, 5.7 nM and 3440 nM.
In the same order, the values of `Cc1cc(-c2[nH]c3ccc(OCC4CCN(C(C)C)CC4)cc3c2C(C)C)cn2ncnc12` [Example 42, 6-(3-isopropyl-5-((1-isopropylpiperidin-4-yl)methoxy)-1H-indol-2-yl)-8-methyl-[1,2,4]triazolo[1,5-a]pyridine] are 0.2 nM, 0.4 nM and 350 nM.
`Cc1cc(-c2[nH]c3ccc(OCC4CCN(C5COC5)CC4)cc3c2C(C)C)cn2ncnc12` [Example 43, 6-(3-isopropyl-5-((1-(oxetan-3-yl)piperidin-4-yl)methoxy)-1H-indol-2-yl)-8-methyl-[1,2,4]triazolo[1,5-a]pyridine]: the IC50 at human TLR7 was 0.6 nM; on human TLR8, 1.1 nM; against human TLR9, more than 50000 nM.
In the same order, the values of `Cc1cc(-c2[nH]c3ccc(OCC4CCN(C5CCOCC5)CC4)cc3c2C(C)C)cn2ncnc12` [Example 44, 6-(3-isopropyl-5-((1-(tetrahydro-2H-pyran-4-yl)piperidin-4-yl)methoxy)-1H-indol-2-yl)-8-methyl-[1,2,4]triazolo[1,5-a]pyridine] are 0.6 nM, 1.4 nM and 1030 nM.
For the compound `Cc1c(-c2[nH]c3ccc(OC4CCN(C(C)C)CC4)cc3c2C(C)C)cn(C)c(=O)c1Cl` [Example 45], the concentration for half-maximal inhibition (IC50) at human TLR7 worked out at 9.6 nM; against human TLR8, 2.2 nM; against human TLR9 it was 2200 nM.
In the same order, the values of `Cc1c(-c2[nH]c3ccc(OC4CCN(C)CC4)cc3c2C(C)C)cn(C)c(=O)c1Cl` [Example 46, 3-chloro-5-(3-isopropyl-5-((1-methylpiperidin-4-yl)oxy)-1H-indol-2-yl)-1,4-dimethylpyridin-2(1H)-one] are 5.6 nM, 3.4 nM and 3750 nM.
In the same order, the values of `Cc1cc(-c2[nH]c3ccc(OC4CCN(C(C)C)CC4)cc3c2C(C)C)cn2ncnc12` [Example 47, 6-(3-isopropyl-5-((1-isopropylpiperidin-4-yl)oxy)-1H-indol-2-yl)-8-methyl-[1,2,4]triazolo[1,5-a]pyridine] are 0.8 nM, 1 nM and 2480 nM.
For `Cc1c(-c2[nH]c3ccc(OC4CCN(C(C)C)CC4)cc3c2C(C)C)cn(C)c(=O)c1C` [Example 48, 5-(3-isopropyl-5-((1-isopropylpiperidin-4-yl)oxy)-1H-indol-2-yl)-1,3,4-trimethylpyridin-2(1H)-one], the IC50 stood at 6.9 nM on human TLR7, 1 nM at human TLR8 and 5040 nM against human TLR9.
In the same order, the values of `Cc1c(-c2[nH]c3ccc(OCC4CCN(C(C)C)CC4)cc3c2C(C)C)cn(C)c(=O)c1C` [Example 49, 5-(3-isopropyl-5-((1-isopropylpiperidin-4-yl)methoxy)-1H-indol-2-yl)-1,3,4-trimethylpyridin-2(1H)-one] are 9.2 nM, 1.8 nM and 4120 nM.
In the same order, the values of `Cc1c(-c2[nH]c3ccc(OC4CCN(C5COC5)CC4)cc3c2C(C)C)cn(C)c(=O)c1C` [Example 50, 5-(3-isopropyl-5-((1-(oxetan-3-yl)piperidin-4-yl)oxy)-1H-indol-2-yl)-1,3,4-trimethylpyridin-2(1H)-one] are 123 nM, 21.3 nM and more than 50000 nM.
Take `Cc1c(-c2[nH]c3ccc(OCC4CCN(C5COC5)CC4)cc3c2C(C)C)cn(C)c(=O)c1C` [Example 51, 5-(3-isopropyl-5-((1-(oxetan-3-yl)piperidin-4-yl)methoxy)-1H-indol-2-yl)-1,3,4-trimethylpyridin-2(1H)-one]: the IC50 against human TLR7 is 19.3 nM; on human TLR8, 2.6 nM; against human TLR9, more than 50000 nM.
In the same order, the values of `Cc1c(-c2[nH]c3ccc(OCC4CCN(C5COC5)CC4)cc3c2C(C)C)cn2cnnc2c1C` [Example 52, 6-(3-isopropyl-5-((1-(oxetan-3-yl)piperidin-4-yl)methoxy)-1H-indol-2-yl)-7,8-dimethyl-[1,2,4]triazolo[4,3-a]pyridine] are 6.1 nM, 5.8 nM and 7810 nM.

One may read the IC50 as the concentration at which inhibition is half-maximal. Read a low IC50 as higher potency.
